Laboratory results: PubChem BioAssay (NCI)
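Test compounds were applied to cells in 96-well plates for 48 hours at 5 doses. At the TGI there is no net growth.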

Tests used:
Test in all cases: DTP human tumour cell line panel, 48 h
[1] = tested on: COLO 205 colon
[2] = tested on: NCI-H522 lung
[3] = tested on: T-47D breast
[4] = tested on: TK-10 renal
[5] = tested on: HCC-2998 colon
[6] = tested on: U251 CNS
[7] = tested on: K-562 leukemia
[8] = tested on: RXF 393 renal
[9] = tested on: HCT-116 colon
[10] = tested on: BT-549 breast
[11] = tested on: SK-MEL-2 melanoma
[12] = tested on: NCI/ADR-RES ovarian
[13] = tested on: IGROV1 ovarian
[14] = tested on: OVCAR-8 ovarian

Compound | TGI [1] [µM] | TGI [2] [µM] | TGI [3] [µM] | TGI [4] [µM] | TGI [5] [µM] | TGI [6] [µM] | TGI [7] [µM] | TGI [8] [µM] | TGI [9] [µM] | TGI [10] [µM] | TGI [11] [µM] | TGI [12] [µM] | TGI [13] [µM] | TGI [14] [µM]
Cc1cn(CCCCC2=NCCCN2)c(=O)[nH]c1=O | > 43.4 | > 46.3 | > 23.9 | > 36.6 | > 32.9 | > 46.4 | > 37.2 | > 32.6 | > 29.3 | > 20.5 | > 35.9 | > 67.5 | > 33.8 | > 28.2
Cc1cc(N(CCC#N)CCC#N)ccc1/C(N=Nc1cccc(Cl)c1)=N/NC(=O)c1cc(Cl)ccc1O | 17.8 | 49 | 60.6 | 59.7 | 26.2 | > 100 | > 100 | 35.3 | 44.4 | 62 | 36.1 | 54.6 | 10.2 | 49.2
CCOC(=O)C(C(=O)OCC)=C1NC2(c3ccccc3Nc3ccccc32)C(C#N)S1 (centres undefined) | 19.4 | 29.2 | 25.5 | 38.6 | 17.1 | 24.5 | 28.4 | 33 | 27.6 | 27.5 | 25.5 | 28.8 | 25.6 | 30
CCOP1(=O)CC(C)=C(Cl)C(O)C1 (centres undefined) | > 100 | > 100 | > 100 | > 100 | > 100 | > 100 | > 100 | > 100 | > 100 | > 100 | > 100 | > 100 | > 100 | > 100
CCOC(=O)/C=C/CCO[Si](C)(C)C(C)(C)C | > 100 | > 100 | > 100 | > 100 | > 100 | > 100 | > 100 | > 100 | > 100 | > 100 | > 100 | > 100 | > 100 | > 100
C[N+]12C=CC=C1C(N1CCCC1)c1scc(-c3ccccc3)c12 (centres undefined) | 41.2 | 29.7 | 78.4 |  |  | > 100 | 29.1 | 90.1 | > 100 | > 100 | 42.3 | > 100 | 31.6 | > 100
c1ccc2oc(-c3ccc(-c4nc5ccccc5o4)c4c3CC4)nc2c1 | > 100 |  | > 100 | > 100 | > 100 | > 100 | > 100 | > 100 | > 100 | > 100 | > 100 | > 100 | > 100 | > 100
Cc1nc2ccc(C(F)(F)F)cc2nc1NCc1ccc(Cl)c(Cl)c1 | 30.6 | 28.8 | 9 | 21.2 | 22.3 | 30.6 | 42.2 | 26.5 | 32 | 39.7 |  | 47.6 | 31.3 | 33.2
COc1cc2c(c(O)c1OC)C(=O)[C@@H]1CCC(=O)N1C2 | > 100 | > 100 | > 100 | > 100 | > 100 | > 100 | > 100 |  | > 100 | > 100 | > 100 | > 100 | > 100 | > 100
O=C(NC1CCN(Cc2ccccc2)CC1)c1ccc(I)cc1 | > 100 | > 100 | > 100 | > 100 |  | > 100 | > 100 | 85.7 | > 100 | > 100 | > 100 | > 100 | > 100 | > 100
Oc1ccc2cc(Br)ccc2c1-c1c(O)ccc2ccc(Br)cc12 | 26.5 | 29.9 | 25.3 | 31.2 | 19.5 | 28 | 35.8 |  | 27.4 | 27.9 | 31.4 | 27.7 | 20.7 | 30.4
O=[N+]([O-])c1cccc2nc3ccccc3c(NCCCNc3c4ccccc4nc4cccc([N+](=O)[O-])c34)c12 | < 0.01 | 0.121 | 0.407 | < 0.01 | 0.0223 | 0.181 |  | < 0.01 | < 0.01 | 0.441 | 0.13 | 1.19 | 0.967 | 0.131
O=C(/C=C/c1ccccc1)Oc1ccc(C(=O)/C=C/c2ccc(Cl)cc2)cc1 | > 100 |  | > 100 | > 100 | > 100 | > 100 | > 100 | > 100 | > 100 | > 100 | > 100 | > 100 | > 100 | > 100
CCc1c(C)c(C#N)c(=S)n(C2OC(COC(C)=O)C(OC(C)=O)C(OC(C)=O)C2OC(C)=O)c1-c1ccccc1 (centres undefined) | > 31.6 | > 31.6 | > 31.6 | > 31.6 | > 31.6 | 31 | 47.2 |  | > 31.6 | > 100 | > 31.6 | > 31.6 | > 31.6 | > 31.6
CC1(C)OCC([C@H]2O[C@@H](CC(=S)NCCCCCCCCCCCCNC(=S)C[C@H]3O[C@@H](C4COC(C)(C)O4)[C@H]4OC(C)(C)O[C@H]43)[C@H]3OC(C)(C)O[C@H]32)O1 (some centres undefined) |  | > 100 | > 100 | > 100 | > 100 | > 100 | > 100 | > 100 | > 100 | > 100 | > 100 | 94.2 | > 100 | > 100
CCOC(=O)C1(F)S(=O)(=O)OCCOS1(=O)=O | > 100 | > 100 | > 100 | > 100 | > 100 | > 100 |  | > 100 | > 100 | > 100 | > 100 | > 100 |  | > 100
CCOC(=O)NNC(=O)NCc1cccc(CNC(=O)NNC(=O)OCC)c1 | > 100 | > 100 | > 100 | > 100 | > 100 | > 100 | > 100 | > 100 | > 100 | > 100 | > 100 | > 100 |  | > 100
